Data: ChEMBL document CHEMBL1149018, “Cytotoxic and antitumor activity of vismiones isolated from vismieae” (J Nat Prod, 1986)
In brackets after ≈: the same amount, converted by molar mass.

Key:
[1] = Cytotoxicity against human 9KB cells after 3 days; format: functional; settings: 72 h, read-out: ID50 (the source's name)
[2] = system: P388; experiment: Cytotoxicity against mouse doxorubicin-resistant P388 cells after 3 days; format: functional; settings: P388, 72 h, read-out: ID50 (the source's name)
[3] = system: P388; experiment: Cytotoxicity against mouse doxorubicin-sensitive P388 cells after 3 days; format: functional; settings: P388, 72 h, read-out: ID50 (the source's name)
[4] = system: Mus musculus; experiment: Toxicity in mouse B16 cells xenografted in BDF1 mouse at 10 mg/kg, ip administered from day 1 to 5 after transplantation; format: organism-based; design: dose 10 mg/kg, route intraperitoneal; settings: in vivo
[5] = system: B16; experiment: Antitumor activity in mouse B16 cells xenografted in BDF1 mouse at 1.25 mg/kg, ip administered from day 1 to 5 after transplantation; format: functional; settings: route intraperitoneal
[6] = system: M5076; experiment: Antitumor activity in mouse M5076 cells xenografted in BDF1 mouse at 0.63 mg/kg, ip administered from day 1 to 9 after transplantation; format: functional; settings: route intraperitoneal
[7] = system: M5076; experiment: Antitumor activity in mouse M5076 cells xenografted in BDF1 mouse at 0.31 mg/kg, ip administered from day 1 to 9 after transplantation; format: functional; settings: route intraperitoneal
[8] = system: B16; experiment: Antitumor activity in mouse B16 cells xenografted in BDF1 mouse at 5 mg/kg, ip administered from day 1 to 5 after transplantation; format: functional; settings: route intraperitoneal
[9] = system: M5076; experiment: Antitumor activity in mouse M5076 cells xenografted in BDF1 mouse at 2.50 mg/kg, ip administered from day 1 to 9 after transplantation; format: functional; settings: dose 2.5 mg/kg; route intraperitoneal
[10] = system: M5076; experiment: Antitumor activity in mouse M5076 cells xenografted in BDF1 mouse at 5 mg/kg, ip administered from day 1 to 9 after transplantation; format: functional; settings: route intraperitoneal
[11] = system: B16; experiment: Antitumor activity in mouse B16 cells xenografted in BDF1 mouse at 0.62 mg/kg, ip administered from day 1 to 5 after transplantation; format: functional; settings: route intraperitoneal
[12] = system: M5076; experiment: Antitumor activity in mouse M5076 cells xenografted in BDF1 mouse at 1.25 mg/kg, ip administered from day 1 to 9 after transplantation; format: functional; settings: route intraperitoneal
[13] = system: Mus musculus; experiment: Toxicity in mouse M5076 cells xenografted in BDF1 mouse at 10 mg/kg, ip administered from day 1 to 9 after transplantation; format: organism-based; design: dose 10 mg/kg, route intraperitoneal; settings: in vivo
[14] = system: B16; experiment: Antitumor activity in mouse B16 cells xenografted in BDF1 mouse at 2.50 mg/kg, ip administered from day 1 to 5 after transplantation; format: functional; settings: dose 2.5 mg/kg; route intraperitoneal

SMILES | IC50 [1] | IC50 [2] | IC50 [3] | further results
CC(C)=CCC/C(C)=C/COc1cc(O)c2c(O)c3c(cc2c1)CC(C)(O)CC3=O (stereo unspecified) [VISMIONE D] | 14 µg/mL (≈ 34.1 µM) | 18 µg/mL (≈ 43.8 µM) | 14 µg/mL (≈ 34.1 µM) | –
CC(=O)OC1(C)CC(=O)c2c(c(C/C=C(\C)CCC=C(C)C)c3cc(O)cc(O)c3c2O)C1 (stereo unspecified) [VISMIONE G] | 3.2 µg/mL (≈ 7.07 µM) | 30 µg/mL (≈ 66.3 µM) | 30 µg/mL (≈ 66.3 µM) | –
CC(C)=CCC/C(C)=C/Cc1c(O)cc2cc3c(c(O)c2c1O)C(=O)CC(C)(O)C3 (stereo unspecified) [VISMIONE F] | 2.8 µg/mL (≈ 6.82 µM) | 13.5 µg/mL (≈ 32.9 µM) | 2 µg/mL (≈ 4.87 µM) | –
COc1cc2cc3c(c(O)c2c2c1C=CC(C)(C)O2)C(=O)CC(C)(OC(C)=O)C3 (stereo unspecified) [ACETYLVISMIONE B] | 42 µg/mL (≈ 106 µM) | 2 µg/mL (≈ 5.04 µM) | 5 µg/mL (≈ 12.6 µM) | –
COc1cc2cc3c(c(O)c2c2c1C=CC(C)(C)O2)C(=O)CC(C)(O)C3 (stereo unspecified) [VISMIONE B] | 10 µg/mL (≈ 28.2 µM) | 3 µg/mL (≈ 8.46 µM) | 10 µg/mL (≈ 28.2 µM) | –
COc1cccc2c1C(=O)c1c(O)c3c(c(O)c1C2=O)C[C@@](O)(C(=O)CO)C[C@@H]3O[C@H]1C[C@H](N)[C@H](O)[C@H](C)O1 [DOXORUBICIN] | 0.2 µg/mL (≈ 0.368 µM) | 0.5 µg/mL (≈ 0.92 µM) | 0.0055 µg/mL (≈ 0.0101 µM) | –
CC(=O)OC1(C)CC(=O)c2c(cc3cc(OC/C=C(\C)CCC=C(C)C)cc(O)c3c2O)C1 (stereo unspecified) [ACETYLVISMIONE D] | 5 µg/mL (≈ 11 µM) | – | 1.8 µg/mL (≈ 3.98 µM) | –
CC(=O)OC1(C)CC(=O)c2c(cc3cc(O)c(C/C=C(\C)CCC=C(C)C)c(O)c3c2O)C1 (stereo unspecified) [ACETYLVISMIONE F] | 1 µg/mL (≈ 2.21 µM) | 3 µg/mL (≈ 6.63 µM) | 2.7 µg/mL (≈ 5.97 µM) | –
COc1cc2cc3c(c(O)c2c(O)c1/C=C/C(C)C)C(=O)CC(C)(O)C3 (stereo unspecified) [DEACETYLVISMIONE A] | 0.7 µg/mL (≈ 1.96 µM) | 0.3 µg/mL (≈ 0.842 µM) | 0.4 µg/mL (≈ 1.12 µM) | –
CC(=O)OC1(C)CC(=O)c2c(cc3cc(O)c(CC=C(C)C)c(O)c3c2O)C1 (stereo unspecified) [VISMIONE C] | 2.1 µg/mL (≈ 5.46 µM) | – | – | –
COc1cc2cc3c(c(O)c2c(O)c1/C=C/C(C)C)C(=O)CC(C)(OC(C)=O)C3 (stereo unspecified) [VISMIONE A] | 0.25 µg/mL (≈ 0.627 µM) | 1.1 µg/mL (≈ 2.76 µM) | 0.45 µg/mL (≈ 1.13 µM) | T/C [4]: Toxic; T/C [5]: 112%; T/C [6]: 115%; T/C [7]: 111%; T/C [8]: 148%; T/C [9]: 140%; T/C [10]: 145%; T/C [11]: 98%; T/C [12]: 119%; T/C [13]: Toxic; T/C [14]: 115%
